Data reported in publication PMC6934184, “Selective DNA-PKcs inhibition extends the therapeutic index of localized radiotherapy and chemotherapy” (The Journal of Clinical Investigation, 2019).

Target: T1, EPHB2 (Homo sapiens, UniProt P29323)
T1 construct: purchased Thermo Fisher Scientific (Life Technologies) SelectScreen
Assay: SelectScreen Z'LYTE
Assay type: biochemical
Summary of the method: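 SelectScreen broad panel; activity (Z'LYTE, Adapta) plus binding formats. ATP: Km app for CSF1R Z'LYTE; 10 for CAMK1 Adapta. Readout = % per kinase.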

T1 sequence (P29323 19-1055): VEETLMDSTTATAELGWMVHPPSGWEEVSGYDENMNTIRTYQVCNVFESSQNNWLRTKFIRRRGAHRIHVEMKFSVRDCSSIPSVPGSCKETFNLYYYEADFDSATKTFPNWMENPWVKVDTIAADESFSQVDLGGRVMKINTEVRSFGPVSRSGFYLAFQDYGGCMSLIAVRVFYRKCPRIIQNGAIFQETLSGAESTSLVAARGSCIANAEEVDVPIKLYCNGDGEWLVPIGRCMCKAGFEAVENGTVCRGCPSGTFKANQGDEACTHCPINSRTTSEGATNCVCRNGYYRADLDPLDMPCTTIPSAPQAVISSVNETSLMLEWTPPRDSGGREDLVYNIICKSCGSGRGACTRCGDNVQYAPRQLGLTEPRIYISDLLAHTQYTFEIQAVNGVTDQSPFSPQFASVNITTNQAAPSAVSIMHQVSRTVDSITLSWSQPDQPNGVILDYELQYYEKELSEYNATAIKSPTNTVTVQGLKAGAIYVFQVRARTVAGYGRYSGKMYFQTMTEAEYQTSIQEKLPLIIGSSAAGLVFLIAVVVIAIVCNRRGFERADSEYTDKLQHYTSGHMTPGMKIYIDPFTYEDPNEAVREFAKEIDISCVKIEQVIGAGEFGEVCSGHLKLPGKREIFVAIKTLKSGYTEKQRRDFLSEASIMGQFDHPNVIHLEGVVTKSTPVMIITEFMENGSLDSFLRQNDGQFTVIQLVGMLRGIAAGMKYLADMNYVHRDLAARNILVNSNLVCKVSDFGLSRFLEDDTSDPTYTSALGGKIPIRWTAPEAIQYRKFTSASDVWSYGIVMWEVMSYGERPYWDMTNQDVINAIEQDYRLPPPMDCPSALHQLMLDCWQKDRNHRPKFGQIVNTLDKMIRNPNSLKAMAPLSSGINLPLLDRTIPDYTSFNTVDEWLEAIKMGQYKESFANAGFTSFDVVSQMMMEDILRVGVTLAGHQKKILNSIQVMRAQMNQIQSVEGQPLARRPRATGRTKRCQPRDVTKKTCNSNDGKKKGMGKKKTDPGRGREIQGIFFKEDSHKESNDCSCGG

With `CN(C(=O)CN1CCOCC1)c1ccc2sc3c(-c4cccc5c(=O)cc(N6CC7CCC(C6)O7)oc45)cccc3c2c1` [NU5455] as the compound, how does the inhibition at 1 µM read?
The inhibition at 1 µM was -0.1%.
